Assay results as given in article PMC10247507 (Journal of immunology (Baltimore, Md. : 1950), 2023).

System: naïve FluNP CD4 T cells
Experiment: Activation of naïve FluNP CD4 T cells by peptide-pulsed BMDC in vitro
Type: cell-based, mouse
Conditions: CD69, CD25, Nur77 assays, 2d in vitro

Substance: NP311–325: immunodominant, highly conserved IAV nucleoprotein (NP) epitope presented by I-A^b; parent peptide of the panel (QVYSLIRPNENPAHK)
- dose for peak responses, lower than the middle peptides (A7, K5): 100 fold
